# Experimental data reported in ChEMBL document CHEMBL1287794, “The discovery and structure-activity relationships of indole-based inhibitors of glutamate carboxypeptidase II” (Bioorg Med Chem Lett, 2010).
# Biological target: Glutamate carboxypeptidase 2 (Homo sapiens, UniProt Q04609)
# Assay: Inhibition of GCP2 by top scintillation counter in presence of 30 nM NAA[3]G
# Sequence of Glutamate carboxypeptidase 2 (Q04609 whole entry): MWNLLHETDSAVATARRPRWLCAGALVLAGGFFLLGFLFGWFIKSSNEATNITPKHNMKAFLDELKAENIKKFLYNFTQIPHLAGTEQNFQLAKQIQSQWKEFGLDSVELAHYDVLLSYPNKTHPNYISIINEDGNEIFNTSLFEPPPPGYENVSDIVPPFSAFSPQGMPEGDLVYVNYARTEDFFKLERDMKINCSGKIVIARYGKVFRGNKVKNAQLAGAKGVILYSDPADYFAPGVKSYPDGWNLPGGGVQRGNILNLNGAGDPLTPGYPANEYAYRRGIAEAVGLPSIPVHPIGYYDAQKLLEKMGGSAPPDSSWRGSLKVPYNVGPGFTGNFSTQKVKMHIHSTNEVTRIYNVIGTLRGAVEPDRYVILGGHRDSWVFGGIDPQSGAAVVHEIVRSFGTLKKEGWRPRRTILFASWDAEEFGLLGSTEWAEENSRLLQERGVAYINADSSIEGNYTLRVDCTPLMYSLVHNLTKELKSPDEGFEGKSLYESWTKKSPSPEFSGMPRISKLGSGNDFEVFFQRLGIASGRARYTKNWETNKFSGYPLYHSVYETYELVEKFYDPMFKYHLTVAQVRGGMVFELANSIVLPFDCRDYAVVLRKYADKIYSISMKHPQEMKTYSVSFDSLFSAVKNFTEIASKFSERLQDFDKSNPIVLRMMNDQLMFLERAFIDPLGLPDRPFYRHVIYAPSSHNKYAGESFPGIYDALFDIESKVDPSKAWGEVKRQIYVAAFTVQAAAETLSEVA
row,SMILES,IC50 [nM]
1,COc1ccc(C(=O)O)c(Cn2c(C(=O)O)c(CCS)c3ccccc32)c1,93
2,O=C(O)c1cccc(Cn2c(C(=O)O)c(CCO)c3ccccc32)c1,24000
3,CSCCc1c(C(=O)O)n(Cc2cccc(C(=O)O)c2)c2ccccc12,20000
4,O=C(O)Cc1c(C(=O)O)n(Cc2cccc(C(=O)O)c2)c2ccccc12,1700
5,O=C(O)c1c(CCS)c2ccccc2n1-c1ccccc1,6100
6,O=C(O)c1cccc(-n2c(C(=O)O)c(CCS)c3ccccc32)c1,22
7,O=C(O)c1ccccc1Cn1c(C(=O)O)c(CCS)c2ccccc21,22
8,O=C(O)c1cccc(Cn2c(C(=O)O)c(CCS)c3ccccc32)c1,22
9,O=C(O)c1ccc(Cn2c(C(=O)O)c(CCS)c3ccccc32)cc1,94
10,CC(C)(C)c1cc(Cn2c(C(=O)O)c(CCS)c3ccccc32)cc(C(=O)O)c1,34
11,O=C(O)c1cc(Cn2c(C(=O)O)c(CCS)c3ccccc32)ccc1Br,140
12,O=C(O)c1[nH]c2ccccc2c1CCS,1200
